Measurements published in US6180600A, “CD8 antagonists” (Thomas Jefferson University, priority 1997, dated 2001).
Bridge positions count the residues as written; N and C are the ends. Ends that are not written are not given here.

What was measured:
[1] = system: cytotoxic T-cell mediated lympholysis of 51Cr labelled EL-4 (H-2b) targets; assay: 4 hour 51Cr release assay: inhibition of cytotoxic T-cell mediated lympholysis by peptide; format: cell-based, mouse (AKR/J anti C57BL/6 effectors); conditions: for inhibition of specific lysis of targets: peptide 100, 10 or 1 μg/ml pre-incubated 30 minutes at 37° C. with effectors, Effector:Target 30:1, 10:1, 3:1, 1:1, 4 hour lysis
Procedure: The effect of peptide on cytotoxicity was measured in a 4 hour ^51 Cr release assay. H-2^b specific effectors were generated in a AKR/J (H-2^k) anti C57BL/6 (H-2^b) mixed lymphocyte reaction. The stimulators (C57BL/6 spleen cells) are gamma-irradiated at 1500 RADS. The targets were obtained from a tumor cell line, EL-4 (H-2^b), that were labelled with Na^51 CrO4. On Day 5 the effectors are harvested and counted. The peptide, at concentrations of 100 μg/ml, 10 μg/ml or 1 μg/ml, was first incubated for 30 minutes at 37° C. with effectors of varying numbers and then ^51 Cr labelled targets were added in a 4 hour specific lysis experiment. The target cell lysis was assessed at Effector:Target ratios of 30:1, 10:1, 3:1, and 1:1. Toxic effects of the peptide was determined by the % specific lysis above background that was obtained by incubating just peptide and labelled targets. No toxic effects were observed. Also, anti-CD8 monoclonal antibody that blocks the interaction resulting in lowered lympholysis is used in the assay.

[2] = system: activation of CTL in AKR/J anti C57BL/6 mixed lymphocyte reaction; assay: Inhibition of activation/generation of cytotoxic T-cells: mixed lymphocyte reaction in presence of peptide, then 51Cr release; format: cell-based, mouse; conditions: peptide present during MLR; effectors washed on Day-6; 4-hour lysis of EL-4 targets
Procedure: The effect of the peptide on the activation of CTL capable of lympholysis was determined by generating effector T-cells in AKR/J anti C57BL/6 mixed lymphocyte reaction in the presence of peptide. On Day-6, effectors are washed and then ^51 Cr-labelled EL-4 targets were added in a 4-hour specific lysis experiment.

[3] = system: allogeneic skin graft rejection; assay: Murine skin transplantation (tail skin allograft onto bm1 recipients); format: in vivo, mouse
Text: Tail skin from C57BL/7 [H-2b] donor is grafted onto the ventral side of bm1 recipient tails. The donors are asphyxiated and 2×4 mm tail pieces are cut. These grafts are placed in 0.1% BSA in PBS on ice. Recipients are anesthetized in isoflurane chamber. While still anesthetized, grafting beds of 10×10 mm on the ventral side of the tail are cut. Two grafting beds per mouse are made, one for syngeneic graft and the other for the allogeneic graft. The grafts are turned 180' and placed in the beds such that the hair of the graft grows in the opposite direction. The grafts are trimmed if necessary such that they fit in the beds without skin hanging over the edge of the beds. A blunt glass tube is placed over the grafts and taped into place. This glass is removed on day 2 post-transplantation.
Five animals per treatment group are used and treatment is prior to transplantation. The untreated group is injected into the tail vein with 200 μl of PBS on Day 0.
Grafts are observed every other day for signs of rejection. […] Grafts are considered rejected due to mechanical failure if the grafts are rejected by Day 3.

[4] = system: GVHD, primarily CD8+ based; assay: Murine model of GVHD (B10.BR ATBM plus CD8+ T-cells into lethally irradiated host); format: in vivo, mouse; conditions: 0.5 mgs peptide on Day 0, 3 and 6; FIG. 2
Procedure: Donor bone marrow is harvested from tibias and femurs of B10.BR mice. T-cells are eliminated from the bone marrow by treatment with anti-Thy1.2 and complement. Complement treatment for 2 cycles at 37° C. for 1 hour each results in more than 90% pure population of bone marrow cells. 10×10^6 T-cell depleted bone marrow [ATBM] cells are injected into the tail vein. Donor splenocytes undergo red blood cell lysis followed by B cell and CD4+ T-cells are depletion using anti-J1J and anti-RL147 antibodies, respectively. This purified CD8+ T-cell population from donors (5×10^6 cells) is injected into the tail vein of the animal. The host is lethally irradiated at 850 cGy approximately 6 hours prior to bone marrow transplantation. Characteristic features of murine acute GVHD include weight loss, diarrhea and loss of hair and death. Body weights were monitored before and after treatment. The treated mice were housed in sterile conditions and observed daily for acute GVHD-like reactions. Lethally irradiated mice reconstituted with ATBM only survive without signs of disease. Mice are treated with 0.5 mgs of SC2 peptide on Day 0, 3 and 6.

Substance | inhibition of specific lysis of targets [1] | inhibition of specific lysis of targets (effectors generated in presence of peptide) [2] | also measured
CLSQNKPC (disulfide 1-8 (inferred)) [Wu-1, cyclic peptide consisting of human CD8 amino acids 52-57 with amino terminal and carboxy terminal cysteines] |  |  | inhibition of killing ([1]; 51[Cr]-release assay as described in Example 2, FIG. 3): approximately 50%
C-D-E-K-L-N-S-S-K-L-C (CDEKLNSSKLC; not fully specified; printed as C-D-E-K-L-N-S-S-K-L-C; cysteine pairing not given here) [SC11] | does not | show inhibition of specific lysis of targets in a concentration dependent manner | 
Wu-2: linear peptide consisting of human CD8 amino acids 37-47 (CQPRGAAASPC) |  |  | rejection of skin grafts ([3]; skin transplantation assay of Example 4, FIG. 4): significant delay in rejection
C-S-S-H-N-K-P-C (CSSHNKPC) [SC2] | inhibits specific lysis of targets in a concentration dependent manner | show inhibition of specific lysis of targets in a concentration dependent manner | skin graft survival ([3]; 0.5 mgs/200 μl PBS in the tail vein on Day 0, FIG. 1): consistently prolonged skin graft survival with biological significance; onset of GVHD [4]: delays the onset of GVHD
